Experimental data taken from article PMC5609913, “Structure based design, synthesis and activity studies of small hybrid molecules as HDAC and G9a dual inhibitors” (Oncotarget, 2017).

Assays:
A549 cells = experiment: Cell anti-proliferation / toxicity assay (CCK-8), A549; type: cell-based; settings: Homo sapiens
Description: (§1) Cell anti-proliferation assays were performed to determine the toxicity of these inhibitors. […] These compounds were further evaluated against the control cell line HEK293 to test their toxicity with a non-cancerous cell line.
(§2) And then the cells were exposed to the different inhibitors with various concentrations for 72 h. […] EC50s were calculated using GraphPad Prizm statistical package with sigmoidal variable slope dose response curve fit.

HEK293 cells = experiment: Cell anti-proliferation / toxicity assay (CCK-8), HEK293 normal cell line; type: cell-based; settings: Homo sapiens, Table 6, 72 h
Description: as §1, §2

HDAC [1] = experiment: Homogeneous cellular histone deacetylase assay, K562; type: cell-based, human
Description: (§3) The enzymatic activity of HDAC was measured in intact cells using the homogeneous cellular assay method. A cell-permeable peptide Boc-K(Ac)-AMC used as the HDAC substrate, after deacetylation it is cleaved by trypsin to release the fluorescent 7-amino-4-methylcoumarin (AMC) and further quantified.
(§4) The manual assay was developed by Thomas's group. […] After 24 h, 9 μl inhibitors with different concentration were added to the HeLa cells and incubation was continued for 3 h under cell culture conditions. After this treatment period, 10 μl of a 2 mM stock solution of the substrate Boc-K(Ac)-AMC was added into the 96 well plates with Hela cells and inhibitors. […] A549 and K562 cell lines used the same method, respectively. IC50s were calculated using GraphPad Prizm statistical package with sigmoidal variable slope dose response curve fit.

HDAC [2] = experiment: Homogeneous cellular histone deacetylase assay, A549; type: cell-based, human; settings: Supplementary Table 2; NA = not active up to highest concentration tested (100 μM); >100 = IC50 not reached at 100 μM
Description: as §3, §4

[3] = Table 6, 72 h, >100 = not reached at highest tested concentration (100 μM)
[4] = Table 3, Boc-K(Ac)-AMC substrate, intact K562 cells, read-out: K562 IC50
[5] = Supplementary Table 2, NA = not active up to highest concentration tested (100 μM), >100 = IC50 not reached at 100 μM, read-out: IC50-HDAC K562

IC50 (HDAC [1]; [4]) [µM]	IC50 (HDAC [2]) [µM]	IC50 (HDAC [1]; [5]) [µM]	SMILES	EC50 (A549 cells; [3]) [µM]	EC50 (HEK293 cells) [µM]	EC50 (A549 cells; Supplementary Table 4, 72 h, NA = not active up to highest concentration tested (100 μM)) [µM]
27.8 ± 0.59	> 100		COc1ccc2c(NC3CCN(Cc4ccccc4)CC3)nc(NCCNC(=O)CCCCCCC(=O)NO)nc2c1 [Compound 13, N1-(2-((4-((1-benzylpiperidin-4-yl)amino)-7-methoxyquinazolin-2-yl)amino)ethyl)-N8-hydroxyoctanediamide]	> 100	57 ± 1.12	
5.74 ± 1.23	> 100		COc1ccc2c(NC3CCN(Cc4ccccc4)CC3)nc(NCCNC(=O)CCCCCC(=O)NO)nc2c1 [Compound 14, N1-(2-((4-((1-benzylpiperidin-4-yl)amino)-7-methoxyquinazolin-2-yl)amino)ethyl)-N7-hydroxyheptanediamide]	36.2 ± 1.76	19.95 ± 0.19	
	> 100	> 100	COc1ccc2c(NC3CCN(Cc4ccccc4)CC3)nc(NCCNC(=O)CCCCC(=O)NO)nc2c1 [Compound 15, N1-(2-((4-((1-benzylpiperidin-4-yl)amino)-7-methoxyquinazolin-2-yl)amino)ethyl)-N6-hydroxyadipamide]			
	> 100	> 100	COc1ccc2c(NC3CCN(C)CC3)nc(NCCNC(=O)CCCCC(=O)NO)nc2c1 [Compound 15a, N1-hydroxy-N6-(2-((7-methoxy-4-((1-methylpiperidin-4-yl)amino)quinazolin-2-yl)amino)ethyl)adipamide]			
	> 100	> 100	COc1ccc2c(NC3CCN(Cc4ccccc4)CC3)nc(NCCNC(=O)CCCC(=O)NO)nc2c1 [Compound 16, N1-(2-((4-((1-benzylpiperidin-4-yl)amino)-7-methoxyquinazolin-2-yl)amino)ethyl)-N5-hydroxyglutaramide]			> 100
	> 100	> 100	COc1ccc2c(NC3CCN(C)CC3)nc(NCCNC(=O)CCCC(=O)NO)nc2c1 [Compound 16a, N1-hydroxy-N5-(2-((7-methoxy-4-((1-methylpiperidin-4-yl)amino)quinazolin-2-yl)amino)ethyl)glutaramide]			
	> 100	> 100	COc1cc2nc(N3CCCN(C)CC3)nc(NC3CCN(C(=O)CCCCCCC(=O)NO)CC3)c2cc1OC [Compound 19, 8-(4-((6,7-dimethoxy-2-(4-methyl-1,4-diazepan-1-yl)quinazolin-4-yl)amino)piperidin-1-yl)-N-hydroxy-8-oxooctanamide]			
	> 100	> 100	COc1cc2nc(N3CCCN(C)CC3)nc(NC3CCN(C(=O)CCCCCC(=O)NO)CC3)c2cc1OC [Compound 20, 7-(4-((6,7-dimethoxy-2-(4-methyl-1,4-diazepan-1-yl)quinazolin-4-yl)amino)piperidin-1-yl)-N-hydroxy-7-oxoheptanamide]			
	> 100	> 100	COc1ccc2c(NCCNC(=O)CCCCCC(=O)NO)nc(N3CCCN(C)CC3)nc2c1 [Compound 22, N1-hydroxy-N7-(2-((7-methoxy-2-(4-methyl-1,4-diazepan-1-yl)quinazolin-4-yl)amino)ethyl)heptanediamide]			
